# Data reported in patent US7453555B2, “Aggregometer with near ultraviolet light source” (Bio/Data Corporation, priority 2005, dated 2008).
# “And” between values parts separate entries of the source, which are not always exact repeats. Identical values can stand only once.
# Assays:
# Type in all cases: cell-based
# [1] = test system: platelets (platelet rich plasma); assay: PAP-8E normal aggregation test, channel to channel data; design: Average % Agg.: dose or concentration left out as unconfirmed; conditions: for Average Slope: PAP-8E 340 nM LED; for Average % Agg.: PAP-8E 340 nm LED
# Method: This test method preferably uses a normal platelet rich plasma (PRP) that has 200,000 platelets per cubic mm, with 1 μL volume. At about 6 μm long (oval), the platelets are quite small.
# The normal test volume for the PAP-8E using the UV LED's is 500 μL. Using this volume, and the 200,000 platelets per cubic mm, we can assume there are (500×200,000=) 100,000,000 platelets.
# During testing the beam of radiation passes through about 25% of the PRP. The task then, is to measure how many and how fast this smaller percentage of the PRP reacts and aggregates. This is done by the measurement of the change in transmission between a platelet poor (PPP) blank and the platelet rich sample.
# The channel to channel variation in the PAP-8 E is now less than 11% CV for slope reproducibility and less than 8% CV for % aggregation reproducibility.
# platelets [2] = assay: Ristocetin dilution test (factor assay), PAP-8E aggregometer with short-wavelength LED; conditions: for 100% Avg. / 100% Slope: 100% level
# Method: (§1) Factor assay test methods benefit from the higher sensitivity of aggregometers utilizing short-wavelength LEDs. In these methods, reference curves are developed with a standard plasma (90-120% activity of the factor) that is serially diluted (down) to an activity of 1.56% (1:64 dilution). Tests are based on the rate of change in optical density.
# (§2) This is a quality control test in which ristocetin/plasma are tested to select the best dilution for a lot of ristocetin reagent. The attenuation of samples was measured at 8.5 mg/ml to 11.0 mg/ml concentrations to determine a slope of each sample (see Table 1, 100% slope, 100% Avg.). The slope is known by those skilled in the art as an indicator of the rate of reaction of the ristocetin reagent. Each of the 8.5 mg/ml to 11.0 mg/ml concentration ristocetin/plasma concentrations were also respectively tested diluted to 50% (see Table 1, 50% slope, 50% Avg.). The results of Table 1 are plotted in FIGS. 4a and 4b. FIG. 4a plots the slopes for each concentration at both 100% and 50% levels. FIG. 4b plots the difference in slopes between the 100% and 50% dilution levels for each concentration. […] Such irregularity makes reliable testing and analysis decision making difficult. […]
# The most common use of aggregation in the United States is a test method called the Ristocetin Cofactor Assay. This assay uses standard lyophilized platelets and a plasma that contains a factor. This method uses a standard curve where the standard plasma is diluted to concentrations of 100% to 25%.
# platelets [3] = assay: Ristocetin dilution test (factor assay), PAP-4 aggregometer with 626 nm LED; conditions: PAP-4 626 nm LED; for 100% Avg. / 100% Slope: 100% level
# Excerpt: as §1
# Table 1 below and FIGS. 4a and 4b provide test results of a factor assay test: a ristocetin dilution test using an aggregometer with a 626 nm (long-wavelength) LED.
# as §2
# [4] = Ristocetin 8.5 mg/ml diluted to 50%
# [5] = Ristocetin 9.0 mg/ml diluted to 50%
# [6] = Ristocetin 9.5 mg/ml diluted to 50%
# [7] = Ristocetin 10.0 mg/ml diluted to 50%
# [8] = Ristocetin 10.5 mg/ml diluted to 50%
# [9] = Ristocetin 11.0 mg/ml diluted to 50%
compound,measurement,setting,value
Nc1ncnc2c1ncn2[C@@H]1O[C@H](COP(=O)(O)OP(=O)(O)O)[C@@H](O)[C@H]1O [ADP],Average Slope,[1],41.3
same,Average % Agg.,[1],72.6%
CNC[C@H](O)c1ccc(O)c(O)c1 [Epinephrine],Average Slope,[1],30.5
same,Average % Agg.,[1],73.1%
Collagen,Average Slope,[1],44.0
same,Average % Agg.,[1],74.9%
CCCCC/C=C\C/C=C\C/C=C\C/C=C\CCCC(=O)O [Arachidonic Acid],Average Slope,[1],38.9
same,Average % Agg.,[1],73.5%
ristocetin,Difference 100 − 50,platelets [2]; Ristocetin 8.5 mg/ml,2.5
same,50% Avg.,platelets [2]; [4],23.0
same,50% Slope,platelets [2]; [4],22.0 and 24.0
same,100% Avg.,platelets [2]; Ristocetin 8.5 mg/ml,25.5
same,100% Slope,platelets [2]; Ristocetin 8.5 mg/ml,23.0 and 28.0
same,Difference 100 − 50,platelets [2]; Ristocetin 9.0 mg/ml,5.0
same,50% Avg.,platelets [2]; [5],26.5
same,50% Slope,platelets [2]; [5],28.0 and 25.0
same,100% Avg.,platelets [2]; Ristocetin 9.0 mg/ml,31.5
same,100% Slope,platelets [2]; Ristocetin 9.0 mg/ml,32.0 and 31.0
same,Difference 100 − 50,platelets [2]; Ristocetin 9.5 mg/ml,8.0
same,50% Avg.,platelets [2]; [6],23.5
same,50% Slope,platelets [2]; [6],24.0 and 23.0
same,100% Avg.,platelets [2]; Ristocetin 9.5 mg/ml,31.5
same,100% Slope,platelets [2]; Ristocetin 9.5 mg/ml,31.0 and 32.0
same,Difference 100 − 50,platelets [2]; Ristocetin 10.0 mg/ml,9.0
same,50% Avg.,platelets [2]; [7],21.5
same,50% Slope,platelets [2]; [7],22.0 and 21.0
same,100% Avg.,platelets [2]; Ristocetin 10.0 mg/ml,30.5
same,100% Slope,platelets [2]; Ristocetin 10.0 mg/ml,31.0 and 30.0
same,Difference 100 − 50,platelets [2]; Ristocetin 10.5 mg/ml,8.0
same,50% Avg.,platelets [2]; [8],23.5
same,50% Slope,platelets [2]; [8],21.0 and 26.0
same,100% Avg.,platelets [2]; Ristocetin 10.5 mg/ml,31.5
same,100% Slope,platelets [2]; Ristocetin 10.5 mg/ml,30.0 and 33.0
same,Difference 100 − 50,platelets [2]; Ristocetin 11.0 mg/ml,4.0
same,50% Avg.,platelets [2]; [9],27.5
same,50% Slope,platelets [2]; [9],29.0 and 26.0
same,100% Avg.,platelets [2]; Ristocetin 11.0 mg/ml,31.5
same,100% Slope,platelets [2]; Ristocetin 11.0 mg/ml,30.0 and 33.0
same,50% Avg.,platelets [3]; [4],29.5
same,50% Slope,platelets [3]; [4],29.0 and 30.0
same,100% Avg.,platelets [3]; Ristocetin 8.5 mg/ml,42.0
same,100% Slope,platelets [3]; Ristocetin 8.5 mg/ml,42.0
same,Difference 100 − 50,platelets [3]; Ristocetin 8.5 mg/ml,12.5
same,50% Avg.,platelets [3]; [5],33.5
same,50% Slope,platelets [3]; [5],32.0 and 35.0
same,100% Avg.,platelets [3]; Ristocetin 9.0 mg/ml,46.5
same,100% Slope,platelets [3]; Ristocetin 9.0 mg/ml,47.0 and 46.0
same,Difference 100 − 50,platelets [3]; Ristocetin 9.0 mg/ml,13.0
same,50% Avg.,platelets [3]; [6],32.0
same,50% Slope,platelets [3]; [6],33.0 and 31.0
same,100% Avg.,platelets [3]; Ristocetin 9.5 mg/ml,40.5
same,100% Slope,platelets [3]; Ristocetin 9.5 mg/ml,41.0 and 40.0
same,Difference 100 − 50,platelets [3]; Ristocetin 9.5 mg/ml,8.5
same,50% Avg.,platelets [3]; [7],33.5
same,50% Slope,platelets [3]; [7],33.0 and 34.0
same,100% Avg.,platelets [3]; Ristocetin 10.0 mg/ml,43.5
same,100% Slope,platelets [3]; Ristocetin 10.0 mg/ml,41.0 and 46.0
same,Difference 100 − 50,platelets [3]; Ristocetin 10.0 mg/ml,10.0
same,50% Avg.,platelets [3]; [8],33.0
same,50% Slope,platelets [3]; [8],31.0 and 35.0
same,100% Avg.,platelets [3]; Ristocetin 10.5 mg/ml,39.5
same,100% Slope,platelets [3]; Ristocetin 10.5 mg/ml,39.0 and 40.0
same,Difference 100 − 50,platelets [3]; Ristocetin 10.5 mg/ml,6.5
same,50% Avg.,platelets [3]; [9],28.5
same,50% Slope,platelets [3]; [9],28.0 and 29.0
same,100% Avg.,platelets [3]; Ristocetin 11.0 mg/ml,36.5
same,100% Slope,platelets [3]; Ristocetin 11.0 mg/ml,41.0 and 32.0
same,Difference 100 − 50,platelets [3]; Ristocetin 11.0 mg/ml,8.0
